Measurements as given in PubChem BioAssay AID1259407 (Chemical Carcinogenesis Research Information System (CCRIS), 2018).
The source made the active and inactive calls. How the calls were made is not given here.

System: CCRIS mutagenicity, Ames/micronucleus/aberration tests
Assay: CCRIS mutagenicity studies
[1] = Test System: AMES SALMONELLA TYPHIMURIUM, Strain/Indicator: TA98, Metabolic Activation: NONE, Method: PREINCUBATION
[2] = Test System: AMES SALMONELLA TYPHIMURIUM, Strain/Indicator: TA100, Metabolic Activation: NONE, Method: PREINCUBATION
[3] = Test System: AMES SALMONELLA TYPHIMURIUM, Strain/Indicator: TA102, Metabolic Activation: NONE, Method: PREINCUBATION
[4] = Test System: AMES SALMONELLA TYPHIMURIUM, Strain/Indicator: TA102, Metabolic Activation: RAT, LIVER, S-9, AROCLOR 1254, Method: PREINCUBATION
[5] = Test System: AMES SALMONELLA TYPHIMURIUM, Strain/Indicator: TA98, Metabolic Activation: RAT, LIVER, S-9, AROCLOR 1254, Method: STANDARD PLATE

For `COc1ccccc1O`, the mutagenic call (End Point: IN VITRO CHROMOSOMAL ABERRATIONS, Test System: SYRIAN HAMSTER EMBRYO (SHE) CELLS, Metabolic Activation: NONE) was “active; positive (structural changes)”, the mutagenic call (Test System: AMES SALMONELLA TYPHIMURIUM, Strain/Indicator: TA97, Metabolic Activation: HAMSTER, LIVER, S-9, AROCLOR 1254 (10 OR 30%), Method: VAPOR CHAMBER) was “inactive; negative” and the mutagenic call (Test System: AMES SALMONELLA TYPHIMURIUM, Strain/Indicator: TA97, Metabolic Activation: NONE, Method: VAPOR CHAMBER) was “inactive; negative”. For the same compound, the mutagenic call (Test System: AMES SALMONELLA TYPHIMURIUM, Strain/Indicator: TA97, Metabolic Activation: RAT, LIVER, S-9, AROCLOR 1254 (5, 10 OR 30%), Method: VAPOR CHAMBER) was “inactive; negative”, the mutagenic call (Test System: AMES SALMONELLA TYPHIMURIUM, Strain/Indicator: TA98, Metabolic Activation: HAMSTER, LIVER, S-9, AROCLOR 1254 (10 OR 30%), Method: VAPOR CHAMBER) was “inactive; negative” and the mutagenic call (Test System: AMES SALMONELLA TYPHIMURIUM, Strain/Indicator: TA98, Metabolic Activation: HAMSTER, LIVER, S-9, AROCLOR 1254 (30%), Method: PREINCUBATION) was “inactive; negative”. For the same compound, the mutagenic call [1] was “inactive; negative”, the mutagenic call (Test System: AMES SALMONELLA TYPHIMURIUM, Strain/Indicator: TA98, Metabolic Activation: NONE, Method: VAPOR CHAMBER) was “inactive; negative” and the mutagenic call (Test System: AMES SALMONELLA TYPHIMURIUM, Strain/Indicator: TA98, Metabolic Activation: RAT, LIVER, S-9, AROCLOR 1254 (10 OR 30%), Method: VAPOR CHAMBER) was “inactive; negative”. The mutagenic call (Test System: AMES SALMONELLA TYPHIMURIUM, Strain/Indicator: TA98, Metabolic Activation: RAT, LIVER, S-9, AROCLOR 1254 (30%), Method: PREINCUBATION) was “inactive; negative”, the mutagenic call (Test System: AMES SALMONELLA TYPHIMURIUM, Strain/Indicator: TA98, Metabolic Activation: RAT, LIVER, S-9, AROCLOR 1254, Method: PREINCUBATION) was “inactive; negative” and the mutagenic call (Test System: AMES SALMONELLA TYPHIMURIUM, Strain/Indicator: TA100, Metabolic Activation: HAMSTER, LIVER, S-9, AROCLOR 1254 (5, 10 OR 30%), Method: VAPOR CHAMBER) was “inactive; negative”. The mutagenic call (Test System: AMES SALMONELLA TYPHIMURIUM, Strain/Indicator: TA100, Metabolic Activation: HAMSTER, LIVER, S-9, AROCLOR 1254 (30%), Method: PREINCUBATION) was “inactive; negative”, the mutagenic call [2] was “inactive; negative” and the mutagenic call (Test System: AMES SALMONELLA TYPHIMURIUM, Strain/Indicator: TA100, Metabolic Activation: NONE, Method: VAPOR CHAMBER) was “inactive; negative”. For the same compound, the mutagenic call (Test System: AMES SALMONELLA TYPHIMURIUM, Strain/Indicator: TA100, Metabolic Activation: RAT, LIVER, S-9, AROCLOR 1254 (5, 10 OR 30%), Method: VAPOR CHAMBER) was “inactive; negative”, the mutagenic call (Test System: AMES SALMONELLA TYPHIMURIUM, Strain/Indicator: TA100, Metabolic Activation: RAT, LIVER, S-9, AROCLOR 1254 (30%), Method: PREINCUBATION) was “inactive; negative” and the mutagenic call (Test System: AMES SALMONELLA TYPHIMURIUM, Strain/Indicator: TA100, Metabolic Activation: RAT, LIVER, S-9, AROCLOR 1254, Method: PREINCUBATION) was “inactive; negative”. For the same compound, the mutagenic call [3] was “inactive; negative”, the mutagenic call [4] was “inactive; negative” and the mutagenic call (Test System: AMES SALMONELLA TYPHIMURIUM, Strain/Indicator: TA1535, Metabolic Activation: HAMSTER, LIVER, S-9, AROCLOR 1254 (10 OR 30%), Method: VAPOR CHAMBER) was “inactive; negative”. For the same compound, the mutagenic call (Test System: AMES SALMONELLA TYPHIMURIUM, Strain/Indicator: TA1535, Metabolic Activation: NONE, Method: VAPOR CHAMBER) was “inactive; negative” and the mutagenic call (Test System: AMES SALMONELLA TYPHIMURIUM, Strain/Indicator: TA1535, Metabolic Activation: RAT, LIVER, S-9, AROCLOR 1254 (10 OR 30%), Method: VAPOR CHAMBER) was “inactive; negative”.
`CC(=O)Oc1ccc2c(CBr)cc(=O)oc2c1` was tested, and the mutagenic call [1] was “inactive; negative”, the mutagenic call (Test System: AMES SALMONELLA TYPHIMURIUM, Strain/Indicator: TA98, Metabolic Activation: RAT, LIVER, S-9, PCB, Method: PREINCUBATION) was “inactive; negative” and the mutagenic call [2] was “inactive; negative”. For the same compound, the mutagenic call (Test System: AMES SALMONELLA TYPHIMURIUM, Strain/Indicator: TA100, Metabolic Activation: RAT, LIVER, S-9, PCB, Method: PREINCUBATION) was “inactive; negative” and the mutagenic call (Test System: E. COLI, Strain/Indicator: WP2 UVRA, Metabolic Activation: NONE, Method: PREINCUBATION) was “inactive; negative”.
With `O=C(/C=C/c1ccc(Oc2ccccc2)cc1)c1ccccc1` the mutagenic call (Test System: AMES SALMONELLA TYPHIMURIUM, Strain/Indicator: TA98, Metabolic Activation: NONE, Method: STANDARD PLATE) was “inactive; negative”, the mutagenic call [5] was “inactive; negative” and the mutagenic call (Test System: AMES SALMONELLA TYPHIMURIUM, Strain/Indicator: TA100, Metabolic Activation: NONE, Method: STANDARD PLATE) was “inactive; negative”. For the same compound, the mutagenic call (Test System: AMES SALMONELLA TYPHIMURIUM, Strain/Indicator: TA100, Metabolic Activation: RAT, LIVER, S-9, AROCLOR 1254, Method: STANDARD PLATE) was “inactive; negative”.
For `CC(=O)C[C@@H]1CCC(=O)CCC(=O)O[C@H](CC(C)=O)CCC(=O)CCC(=O)O1`, the mutagenic call (Test System: CHINESE HAMSTER V-79, Strain/Indicator: V-79 (HPRT)/6-THIOGUANINE, Metabolic Activation: NONE) was “inactive; negative”.
`CCOC(=O)N(N=O)C(CCC=O)c1cccnc1` (stereo not given) was tested, and the mutagenic call [2] was “active; positive”.
For `CCN(C(C)=O)c1ccc2c(c1)Cc1ccccc1-2`, the mutagenic call [5] was “active; positive”.
`N[C@@H](CC(=O)O)C(=O)O` was tested, and the mutagenic call (End Point: In vivo micronucleus, Test System: Bone marrow erythrocytes, Species: Mouse, Strain/Sex: Crl:CD1 (ICR)/Male and female, Route: Oral) was “inactive; negative”, the mutagenic call (Test System: AMES SALMONELLA TYPHIMURIUM, Strain/Indicator: TA97, Metabolic Activation: NONE, Method: PREINCUBATION) was “inactive; negative” and the mutagenic call (Test System: AMES SALMONELLA TYPHIMURIUM, Strain/Indicator: TA97, Metabolic Activation: RAT, LIVER, S-9, AROCLOR 1254, Method: PREINCUBATION) was “inactive; negative”. For the same compound, the mutagenic call [1] was “inactive; negative”, the mutagenic call (Test System: AMES SALMONELLA TYPHIMURIUM, Strain/Indicator: TA98, Metabolic Activation: RAT LIVER S-9, PHENOBARBITAL AND BETA-NAPHTHOFLAVONE, Method: PREINCUBATION) was “inactive; negative” and the mutagenic call [2] was “inactive; negative”. The mutagenic call (Test System: AMES SALMONELLA TYPHIMURIUM, Strain/Indicator: TA100, Metabolic Activation: RAT LIVER S-9, PHENOBARBITAL AND BETA-NAPHTHOFLAVONE, Method: PREINCUBATION) was “inactive; negative”, the mutagenic call [3] was “inactive; negative” and the mutagenic call [4] was “inactive; negative”. The mutagenic call (Test System: AMES SALMONELLA TYPHIMURIUM, Strain/Indicator: TA1535, Metabolic Activation: NONE, Method: PREINCUBATION) was “inactive; negative”, the mutagenic call (Test System: AMES SALMONELLA TYPHIMURIUM, Strain/Indicator: TA1535, Metabolic Activation: RAT LIVER S-9, PHENOBARBITAL AND BETA-NAPHTHOFLAVONE, Method: PREINCUBATION) was “inactive; negative” and the mutagenic call (Test System: AMES SALMONELLA TYPHIMURIUM, Strain/Indicator: TA1537, Metabolic Activation: NONE, Method: PREINCUBATION) was “inactive; negative”. The mutagenic call (Test System: AMES SALMONELLA TYPHIMURIUM, Strain/Indicator: TA1537, Metabolic Activation: RAT LIVER S-9, PHENOBARBITAL AND BETA-NAPHTHOFLAVONE, Method: PREINCUBATION) was “inactive; negative”, the mutagenic call (Test System: Ames Salmonella typhimurium, Strain/Indicator: TA98, Species: None, Method: Standard plate) was “inactive; negative” and the mutagenic call (Test System: Ames Salmonella typhimurium, Strain/Indicator: TA98, Species: Rat, Liver, S-9, Aroclor 1254 (10%), Method: Standard plate) was “inactive; negative”. For the same compound, the mutagenic call (Test System: Ames Salmonella typhimurium, Strain/Indicator: TA100, Species: None, Method: Standard plate) was “inactive; negative”, the mutagenic call (Test System: Ames Salmonella typhimurium, Strain/Indicator: TA100, Species: Rat, Liver, S-9, Aroclor 1254 (10%), Method: Standard plate) was “inactive; negative” and the mutagenic call (Test System: Ames Salmonella typhimurium, Strain/Indicator: TA1535, Species: None, Method: Standard plate) was “inactive; negative”. For the same compound, the mutagenic call (Test System: Ames Salmonella typhimurium, Strain/Indicator: TA1535, Species: Rat, Liver, S-9, Aroclor 1254 (10%), Method: Standard plate) was “inactive; negative”, the mutagenic call (Test System: Ames Salmonella typhimurium, Strain/Indicator: TA1537, Species: None, Method: Standard plate) was “inactive; negative” and the mutagenic call (Test System: Ames Salmonella typhimurium, Strain/Indicator: TA1537, Species: Rat, Liver, S-9, Aroclor 1254 (10%), Method: Standard plate) was “inactive; negative”. For the same compound, the mutagenic call (Test System: E. coli, Strain/Indicator: WP2 uvrA, Metabolic Activation: None, Method: Standard plate) was “inactive; negative”, the mutagenic call (Test System: E. coli, Strain/Indicator: WP2 uvrA, Metabolic Activation: Rat, Liver, S-9, Aroclor 1254 (10%), Method: Standard plate) was “inactive; negative” and the mutagenic call (Test System: E.COLI, Strain/Indicator: WP2UVRA/PKM101, Metabolic Activation: NONE, Method: PREINCUBATION) was “inactive; negative”. The mutagenic call (Test System: E.COLI, Strain/Indicator: WP2UVRA/PKM101, Metabolic Activation: RAT LIVER S-9, PHENOBARBITAL AND BETA-NAPHTHOFLAVONE, Method: PREINCUBATION) was “inactive; negative”.
